Measured values as given in patent publication US20020129385A1, “MEDTHODS FOR IMPROVING LONG-TERM MEMORY STORAGE AND RETRIEVAL” (priority 1998, published 2002).

Legend:
NMDA receptors = assay: NMDA-mediated synaptic potentials in hippocampal slices (DNQX, reduced Mg2+); format: cell-based, mouse; settings: 50 (M DL-AP5); 10 (M DNQX, Mg2+ 50 μM)
Method: (§1) Transverse hippocampal slices were prepared as previously described (Abel et al., 1997). Mice of either sex, aged 7-18 weeks were used. Where appropriate, the experimenter was blind to animal genotype. […] For extracellular recordings, ACSF-filled glass electrodes (1-3 MW) were positioned in the stratum radiatum of area CA1. A bipolar nichrome stimulating electrode was also placed in stratum radiatum for stimulation of Schaffer collateral afferents (0.05 ms duration). Unless otherwise mentioned, test stimuli were applied at a frequency of 1 per minute (0.017 Hz), and at a stimulus intensity that elicits a fEPSP slope that was 35% of the maximum. Experiments in which changes in the fiber volley occurred, were discarded. Drugs were applied through the perfusion medium. DL-AP5, calyculin A, KT5720 and R(+)-6-Bromo-7,8-dihydroxy-3-allyl-1-phenyl-2,3,5-tetrahydro-1H-3-benzazepine (6-Br-APB) were purchased from Research Biochemicals International, Natick, Mass.

SC-CA1 synapse [1] = assay: Chemically-induced slow-onset potentiation (L-LTP), fEPSP recording in hippocampal slices; format: cell-based, mouse; parameters: dose or concentration left out as unconfirmed
Method: as §1

calcineurin [2] = assay: Phosphatase assay in hippocampal extracts of CN98 mice; format: biochemical, mouse; settings: CN98 mutant and wild-type hippocampal extracts
Method: Phosphatase assays were performed according to Hubbard and Klee (1991). Briefly, mice were injected with 5 ml/kg of pentobarbital and decapitated. Hippocampi were homogenized in 2 mM EDTA (pH 8), 250 mM sucrose, 0.1% β-mercaptoethanol and centrifuged. Supernatants were diluted in 40 mM Tris-HCl (pH 8), 0.1 M NaCl, 0.4 mg/ml bovine serum albumin, 1 mM DTT, […] okadaic acid (Buffer 1) and incubated at 30° C. for 1 min in Buffer 1 containing […] of the peptide [γ^32p]-RII subunit of cyclic AMP-dependent protein kinase (PKA) and either 0.1 mM calmodulin (SIGMA®) and 0.66 mM Ca^2( or 0.33 mM EGTA (pH 7.5). The peptide [Ala^97]-RII (Peninsula Labs) was labeled with 0.3 mM [γ^32p] ATP (NEN®) using […] catalytic subunit of PKA (FLUKA®). The reaction was stopped with 5% TCA in 0.1 M KH2PO4 and the enzyme activity was calculated as previously described (Klee et al., 1983) and is expressed in nmol Pi released/min/mg protein. The protein concentration was determined using the bicinchroninic acid protein assay kit (SIGMA®). All samples were performed in triplicate.

calcineurin [3] = assay: Phosphatase assay in hippocampal extracts of Tet-CN279 and Tet-CN273 mice; format: biochemical, mouse
Method: Phosphatase assays were performed as described in Winder et al., 1998. Briefly, mice were injected with 5 ml/kg of pentobarbital and decapitated. Hippocampi were dissected out, homogenized in 2 mM EDTA (pH 8), 250 mM sucrose, 0.1% β-mercaptoethanol. Supernatants were incubated at 30° C. for 1 min in presence of the […] [[…]]-RII peptide and either 0.1 mM calmodulin and 0.66 mM Ca^2+ or 0.33 mM EGTA. The reaction was stopped and the enzyme activity calculated previously as described (Klee et al., 1983; 1987). The activity was expressed in nmol Pi released/min/mg protein. The protein concentration was determined using the bicinchroninic acid protein assay kit (SIGMA®). All samples were performed in triplicate.

calcineurin [4] = assay: Phosphatase assay in hippocampal extracts of rTet-CN279 mice; format: biochemical, mouse; settings: extracts from control and mutant mice not treated or treated with doxycycline
Method: Phosphatase assays were performed as described in Winder et al., 1998. Briefly, hippocampal extracts from rTet-CN279 adult mice were prepared in 2 mM EDTA (pH 8), 250 mM sucrose, 0.1% b-mercaptoethanol. Supernatants were incubated at 30° C. for 1 min in the presence of […] [[…]]-RII peptide and either 0.1 mM calmodulin and 0.66 mM Ca^2( or 0.33 mM EGTA. The enzyme activity was expressed in nmol Pi released/min/mg protein.

SC-CA1 synapse [5] = assay: LTP induced by four 100 Hz trains in hippocampal slices in the presence of drugs; format: cell-based, mouse; settings: wild-type slices; KT5720, 20 minute pretreatment; anisomycin 30 μM one hour
Method: as §1

SC-CA1 synapse [6] = assay: LTP induced by two 100 Hz trains in hippocampal slices in the presence of drugs; format: cell-based, mouse; parameters: Sensitivity of LTP elicited by two trains to preincubation with the drug: dose or concentration left out as unconfirmed
Method: as §1

[7] = test system: protein synthesis in area CA1; settings: 30 μM; Stanton and Sarvey, 1984; Osten et al., 1996; cited from earlier work
[8] = test system: Schaffer collateral CA1 pathway; assay: LTP induced by two 100 Hz trains (I-LTP) in slices of rTet-CN279 mice treated with doxycycline (rtTA system); format: cell-based, mouse; settings: ACSF 6 ng doxycycline/ml
Method: Recordings were performed as described in Winder et al., (1998). […] Test stimuli were applied at a frequency of 1 per min at an intensity that elicits an EPSP with a slope of […] of maximum. Slices from mice treated with doxycycline were incubated in ACSF containing doxycycline (6 ng/ml) for 2-3 hours before the tetanus was applied and subfused with doxycycline solution throughout the recordings.

SC-CA1 synapse [9] = assay: LTP induced by two trains in slices of Tet-CN279 mice on or off doxycycline (tTA system); format: cell-based, mouse
Method: as §1
The transgenic mice CN279 and CN273 were generated by microinjection of the linear construct as previously described (Hogan et al., 1994; Winder et al., 1998). Analysis of founder mice for integration of the transgene was performed by Southern blotting and PCR. The founder mice were backcrossed to C57BL6 F1/J mice to generate the transgenic lines CN279 and CN273. […]

For NC(CCCP(=O)(O)O)C(=O)O (racemic) [DL-AP5], the “NMDA-mediated field potentials in the presence of the drug” value (NMDA receptors) was “abolished”.

With C=CCN1CCc2c(cc(O)c(O)c2Br)[C@@H](c2ccccc2)C1 [6-Br-APB, R(+)-6-Bromo-7,8-dihydroxy-3-allyl-1-phenyl-2,3,5-tetrahydro-1H-3-benzazepine] the “fEPSP slope, % of baseline at 3 hr after drug application” value (from here on “fEPSP slope, % of baseline at 3 hr”) (SC-CA1 synapse [1]; CN98 mutant slices) was 181±41 % of baseline and the “fEPSP slope, % of baseline at 3 hr” value (SC-CA1 synapse [1]; wild-type slices) was 204±40 % of baseline.

For O=C(O)CN(CCOCCOCCN(CC(=O)O)CC(=O)O)CC(=O)O [EGTA], the “Phosphatase activity in the presence of the calcium chelator” value (calcineurin [2]) was “virtually abolished”, the Phosphatase activity (calcineurin [3]; mutant (Tet-CN279+Tet-CN273)+EGTA) was 0.287±0.17 nmol Pi/min/mg and the Phosphatase activity (calcineurin [3]; wild-type (Tet-CN279+Tet-CN273)+EGTA) was 0.432±0.11 nmol Pi/min/mg. For the same molecule, the “Phosphatase activity in the presence of the Ca2+ chelator” value (calcineurin [4]) was “blocked”.

In the case of CCCCCCOC(=O)[C@]1(O)C[C@@H]2O[C@@]1(C)n1c3ccccc3c3c4c(c5c6ccccc6n2c5c31)C(=O)NC4 [KT5720], the “Decay of LTP induced by four 100 Hz trains, compared with anisomycin” value (SC-CA1 synapse [5]) was “much more rapid decay of LTP” and the “LTP elicited by two trains, % of baseline at 1 hr” value (SC-CA1 synapse [6]; wild-type slices, KT5720, no drug 206±23%) was 153±5 % of baseline.

For Nc1ncnc2c1ncn2[C@@H]1O[C@@H]2COP(O)(=S)O[C@H]2[C@H]1O (stereo partly drawn) [Sp-cAMPS], the “fEPSP slope, % of baseline at 3 hr” value (SC-CA1 synapse [1]; CN98 mutant slices) was 122±17 % of baseline and the “fEPSP slope, % of baseline at 3 hr” value (SC-CA1 synapse [1]; wild-type slices) was 124±13 % of baseline.

In the case of COc1ccc(C[C@H]2NC[C@H](O)[C@H]2OC(C)=O)cc1 [anisomycin], the “Sensitivity of LTP elicited by two trains to preincubation with the drug” value (SC-CA1 synapse [6]; wild-type slices, anisomycin (FIG. 4C)) is given as “completely insensitive” and the “Effect on protein synthesis in area CA1” value [7] is given as “completely block protein synthesis”.

In the case of COC[C@@H]([C@H](O)[C@H](O)C(=O)NCC[C@H](C)c1nc(/C=C/C[C@@H]2O[C@]3(C[C@@H](O)[C@@H]2C)O[C@H]([C@H](C[C@H](O)[C@H](C)[C@H](O)[C@H](C)/C=C(C)/C(C)=C/C=C/C(C)=C\C#N)OC)[C@H](OP(=O)(O)O)C3(C)C)co1)N(C)C [calyculin A], the “LTP induced with two 100 Hz trains after drug pretreatment, mutant versus wild-type” value (SC-CA1 synapse [6]; Tet-CN279 mutant slices, 750 nM, 30 minutes pretreatment) was “indistinguishable from that seen in wild-type”.

For C[C@H]1c2cccc(O)c2C(=O)C2=C(O)[C@]3(O)C(=O)C(C(N)=O)=C(O)[C@@H](N(C)C)[C@@H]3[C@@H](O)[C@@H]21 [doxycycline], the “LTP induced by two 100 Hz trains (I-LTP), % of baseline at 1 hour” value ([8]; rTet-CN279 Control dox) was 195±9 % of baseline, the “LTP induced by two 100 Hz trains (I-LTP), % of baseline at 1 hour” value ([8]; rTet-CN279 Mutant dox) was 141±8 % of baseline and the “LTP induced by two trains, % of baseline at 1 hr” value (SC-CA1 synapse [9]; Tet-CN279 Wt on doxycycline (1 mg/ml water, 1 ng/ml ACSF)) was 191±18 % of baseline. The “LTP induced by two trains, % of baseline at 1 hr” value (SC-CA1 synapse [9]; Tet-CN279 mutant on doxycycline (1 mg/ml water, 1 ng/ml ACSF)) was 184±18 % of baseline.
